Experimental data: US5208344A, “Naphthalenepropionic acid derivatives as anti-inflammatory/antiallergic agents” (American Home Products Corporation, priority 1991, dated 1993)

Columns and labels:
[1] = biological target: T1, LTD4 (Cavia porcellus, UniProt Q2NNR5); assay: LTD4 antagonist activity in isolated guinea pig trachea; format: cell-based; details: 1 × 10^-5 M
T1 construct: isolated guinea pig trachea; from tissue; host or cells: guinea pig tracheal rings
T1 sequence (Q2NNR5 1-340): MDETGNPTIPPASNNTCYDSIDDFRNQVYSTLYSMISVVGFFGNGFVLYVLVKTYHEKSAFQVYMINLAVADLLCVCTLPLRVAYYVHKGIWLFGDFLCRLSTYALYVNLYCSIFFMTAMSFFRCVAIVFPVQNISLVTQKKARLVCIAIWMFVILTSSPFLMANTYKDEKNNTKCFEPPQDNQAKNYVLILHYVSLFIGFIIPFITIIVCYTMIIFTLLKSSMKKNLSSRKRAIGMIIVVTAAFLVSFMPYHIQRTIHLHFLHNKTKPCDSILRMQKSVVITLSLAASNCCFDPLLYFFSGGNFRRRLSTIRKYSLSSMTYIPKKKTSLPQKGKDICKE
Method: The LTD4 antagonist activity of the compounds of the invention is assessed in the in vitro isolated guinea pig trachea assay. Male Hartley guinea pigs (350-400 g) are euthanized by a blow to the head, the neck is opened and the trachea removed. The trachea is maintained in aerated physiological salt solution, cleared of connective tissue and fat and cut into rings approximately 2 mm in width (usually containing two cartilaginous segments per ring). Two pieces of silk suture are then passed through the lumen of the tracheal ring and are tied around the cartilage, one on each side of the trachealis muscle. The tracheal ring is suspended between a glass hook and a force displacement transducer in a 10 ml organ bath for measurement of isometric tension. Tissues are maintained at 37° C. in aerated ([…] /5% CO2) physiological salt solution of the following composition: […] The tracheal rings are maintained at 2 g resting tension and equilibrated for 45 minutes (with frequence washing and readjustment of resting tension). The tracheal rings are first contracted by the addition of carbachol (3×10^-6 M), to determine tissue responsiveness and establish a reference contraction. On attainment of a stable level of contraction (approximately 30 minutes), the tissues are washed several times until baseline tension has been restored and the re-equilibrated for 30 minutes. The tissues are then incubated for 45 minutes with a test antagonist (either 1×10^-6 M or 1×10^-5 M) or 10 μl of an appropriate solvent control (control, non-treated). One tissue in each group serves as the control. Twenty minutes prior to the construction of the LTD4 cumulative concentration-response curve, L-[…]×10^-2 M final bath concentration) is added to inhibit bioconversion of LTD4 to LTE4. Only one LTD4 concentration-response curve is constructed in each tissue. All responses to LTD4 in an individual tissue are measured as a percentage of the reference contraction of that tissue to carbachol. LTD4 antagonist activity is determined by comparison of the concentration response curves of LTD4 in the presence and absence of antagonist. Assessment of the relative rightward shift of the antagonist treated curve relative to the solvent (control) treated tissue is calculated as a concentration ratio (Eq. A) and used in subsequent calculations to derive an antagonist pKB value (Eqs. B and C). In the vent that the maximum response to LTD4 is depressed, the EC50 for that particular curve is determined, an "apparent" pKB reported, and the compound reported as "not-competitive." [formula] If a compound is found to be active and/or depress the maximal response to LTD4, then a range of concentrations of the test compound should be used generating multiple concentration ratios which would than be used to perform a Schild analysis, and determination of a pA2 value where appropriate.

[2] = biological target: T2, 5-lipoxygenase (Homo sapiens, UniProt P09917); assay: inhibition of 5-lipoxygenase in human whole blood (LTB4); format: cell-based; details: human whole blood
T2 construct: Blood is obtained in 50-100 ml quantities from male donors; endogenous in cells; host or cells: human whole blood (leukocytes) from male donors
T2 sequence (P09917 1-674): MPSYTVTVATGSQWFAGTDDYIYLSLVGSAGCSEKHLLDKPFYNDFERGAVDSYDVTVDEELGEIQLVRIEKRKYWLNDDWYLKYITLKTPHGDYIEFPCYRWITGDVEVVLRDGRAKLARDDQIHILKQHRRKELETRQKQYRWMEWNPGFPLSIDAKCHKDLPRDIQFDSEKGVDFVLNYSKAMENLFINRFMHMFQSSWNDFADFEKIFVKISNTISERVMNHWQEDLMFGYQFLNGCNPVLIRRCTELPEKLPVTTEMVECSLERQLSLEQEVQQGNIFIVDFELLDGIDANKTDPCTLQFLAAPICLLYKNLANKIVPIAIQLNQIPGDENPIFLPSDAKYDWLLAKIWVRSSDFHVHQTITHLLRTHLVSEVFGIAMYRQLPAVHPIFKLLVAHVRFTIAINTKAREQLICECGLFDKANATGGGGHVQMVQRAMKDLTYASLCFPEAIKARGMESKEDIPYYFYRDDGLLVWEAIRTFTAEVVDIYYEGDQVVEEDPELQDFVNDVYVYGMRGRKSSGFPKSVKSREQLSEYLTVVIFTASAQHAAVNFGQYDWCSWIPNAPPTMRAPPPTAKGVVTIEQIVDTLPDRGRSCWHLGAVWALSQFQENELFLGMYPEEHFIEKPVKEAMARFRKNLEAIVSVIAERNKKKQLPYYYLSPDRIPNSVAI
Method: The assay of this Example measures the ability of the compounds tested to inhibit 5-lipxygenase in human whole blood.
Blood is obtained in 50-100 ml quantities from male donors. White blood cell counts and differentials are made. Two ml of blood are placed in a 15 ml polypropylene test tube. Compounds are solubilized in dimethylsulfoxide and diluted 1:10 in 10% bovine serum albumin in phosphate buffered saline, pH 7.4 resulting in a final dimethylsulfoxide concentration of 0.1% in the blood. Then, compounds are added to the blood in a shaking water bath at 37° C. for 10 minutes prior to the addition of 30 μM calcium ionophore (A23187; Sigma). After ionophore administration, whole blood samples are mixed and incubated for 20 minutes at 37° C. in a shaking water bath. Incubation is terminated by placing samples in an ice bath and immediately adding ethylene glycol-bis-(β-aminoethyl ether)-N,N,N',N'-tetraacetic acid (10 mM). Samples are mixed and centrifuged at 1200×g for 15 minutes at 4° C. Preparation of samples for evaluation by RIA or ELISA is carried out by the following protocol. Plasma is removed from sample tubes, placed in 15 ml polypropylene test tubes containing 8 ml methanol, and then vortexed to precipitate protein. Samples are stored at -70° C. overnight. The next day, samples are centrifuged at 200×g for 15 minutes at 4° C. to pellet the precipitate. Samples are dried in a Savant speed vac concentrator, reconstituted to original volume with ice cold RIA or ELISA buffer, and stored at -70° C. until assayed. The assay for eicosanoids (LTB4, TxB2, and PGE2) is performed as described by the manufacturer of the [^3 H]-RIA kit or ELISA kit (LTB4 -Amersham, TxB2 and PGE2 - Caymen Chemical).
The total eicosanoid level in 2 ml of blood is calculated and reported as ng/10^6 neutrophils. Significance is determined by a one-way analysis of variance with least significant difference (LSD) comparisons to control (p≤0.05) and IC50 's (μM) are determined by regression analysis (Finney, 1978). Drug effects are expressed as percent change form control values.
Compounds tested in vitro are solubilized in dimethylsulfoxide and diluted 1:10 in 10% bovine serum albumin in phosphate buffer saline resulting in a final dimethylsulfoxide concentration of 0.1% in the blood.

[3] = test system: carrageenan paw edema; assay: rat carrageenan paw edema assay; format: in vivo; details: Rattus norvegicus, po, 3 h, read-out: Oral ED50 (95% C.L.)
Method: The compounds of the invention are further tested in the rat carrageenan paw edema assay to determine their ability to inhibit the acute inflammatory response.
140-180 gm male Sprague-Dawley rats, in groups of 6 animals are injected subcutaneously in the right paw with 0.1 ml of 1% carrageenan at zero time. Mercury plethysmographic readings (ml) of the paw are made at zero time and 3 hours later. Test compounds are suspended or dissolved in 0.5% methylcellulose and given perorally 1 hour prior to carrageenan administration.
The increase in paw volume (edema in ml.) produced by the carrageenan is measured. […] Unpaired Student's t-test is used to determine statistical significance.

SMILES	Kb [1]	inhibition at 25 µM [2]	IC50 [2]	ED50 [3]
CC(=O)Oc1ccccc1C(=O)O [Aspirin, reference compound]	–	–	–	145 mg/kg
C[C@H](C(=O)N(C)O)c1ccc2cc(OCc3nc4ccccc4s3)ccc2c1 [Example 41, S-(+)-N-Hydroxy-α,N-dimethyl-6-(2-benzothiazolylmethoxy)-2-naphthaleneacetamideone tenth hydrate]	0.398 µM	83%	11.4 µM	–
C[C@H](C(=O)N(C)O)c1ccc2cc(OCc3ccccn3)ccc2c1 [Example 44, S-(+)-N-Hydroxy-α, N-diomethyl-6-(2-pyridinylmethoxy)-2-naphthaleneacetamide]	1.58 µM	86%	2 µM	–
CC(NC(=O)NO)c1ccc2cc(OCc3csc(-c4ccccc4)n3)ccc2c1 (single isomer, unassigned; (-)) [Example 36, (-)-N-Hydroxy-N'-[1-[6-(2-phenyl-4-thiazolyl)methoxy-2-naphthalenyl]ethyl]urea]	> 10 µM	86%	13.5 µM	–

Continued, in another order:

Kb [1]	inhibition at 25 µM [2]	IC50 [2]	SMILES	ED50 [3]
0.2 µM	75%	1.1 µM	C[C@H](C(=O)N(C)O)c1ccc2cc(OCc3nc4ccccc4n3C)ccc2c1 [Example 45, S-(+)-N-Hydroxy-α,N-dimethyl-6-[(1-methyl-1H-benzimidazol-2-yl)methoxy]-2-naphthaleneacetamide]	–
> 6.31 µM	52%	34.4 µM	C[C@H](NC(=O)NO)c1ccc2cc(OCc3nc4ccccc4s3)ccc2c1 [Example 38, S-(-)-N-[1-[6-(2-Benzothiazolylmethoxy)-2-naphthalenyl]ethyl]-N'-hydroxyurea]	–
10 µM	91%	6.9 µM	C[C@H](C(=O)N(C)O)c1ccc2cc(OCc3csc(-c4ccccc4)n3)ccc2c1 [Example 39, S(+)-N-Hydroxy-α,N-dimethyl-[6-(2-phenyl-4-thiazolyl)methoxy]-2-naphthaleneacetamide]	–
0.501 µM	84%	2.3 µM	C[C@H](C(=O)N(C)O)c1ccc2cc(OCc3nc4ccccc4o3)ccc2c1 [Example 47, S-N-Hydroxy-α, N-dimethyl-6-(2-benzoxazolylmethoxy)-2-naphthaleneacetamide]	–
